pIC50: −log10 of the molar value. The source made the active and inactive calls. The rule behind the calls is not given here.
Columns and labels:
[1] = test system: MGC-803; assay: Antitumor activity against human MGC-803 cells xenografted in […] mouse model assessed as decrease in HDAC6 expression administered as IP dose by Western blot analysis; format: functional, cell-based; conditions: dose 25-50 mg/kg
[2] = Observed clearance in male Sprague-Dawley rat at 7 mg/kg,po measured upto 8 hrs by UPLC-MS/MS analysis; format: ADME, organism-based; conditions: in vivo
[3] = test system: Mus musculus; assay: Cardioprotective activity against myocardial ischemia/reperfusion induced C57BL/6J mouse model assessed as reduction in IL-18 expression at 2.5 to 10 mg/kg; format: functional, organism-based; conditions: dose 2.5-10 mg/kg
[4] = test system: MGC-803; assay: Induction of apoptosis in human MGC-803 cells measured after 48 hrs by Annexin V-EGFP and PI staining based flow cytometry analysis; format: functional, cell-based; conditions: dose <= 2.0 µM
[5] = molecular target: T1, Histone deacetylase 1 (Homo sapiens, UniProt Q13547); assay: Inhibition of HDAC1 (unknown origin)
[6] = test system: MGC-803; assay: Induction of apoptosis in human MGC-803 cells assessed as late apoptotic cells at 0.5 uM measured after 48 hrs by Annexin V-EGFP and PI staining based flow cytometry analysis (reference value: 3.16%); format: functional
[7] = test system: Mus musculus; assay: Cardioprotective activity against myocardial ischemia/reperfusion induced C57BL/6J mouse model assessed as alleviation of severe edema at 10 mg/kg by H and E staining based analysis; format: functional, organism-based
[8] = Half life in male Sprague-Dawley rat at 7 mg/kg,po measured upto 8 hrs by UPLC-MS/MS analysis; format: ADME, organism-based; conditions: in vivo
[9] = test system: MGC-803; assay: Antimetastatic activity in human MGC-803 cells; format: functional, cell-based; conditions: dose <= 2.0 µM
[10] = test system: MGC-803; assay: Induction of apoptosis in human MGC-803 cells assessed as increase in bax expression by Western blot analysis; format: functional, cell-based; conditions: dose <= 2.0 µM
[11] = test system: HGC-27; assay: Antiproliferative activity against human HGC-27 cells assessed as inhibition of cell growth by MTT assay
[12] = Half life in male Sprague-Dawley rat at 7 mg/kg,iv measured upto 8 hrs by UPLC-MS/MS analysis; format: ADME, organism-based; conditions: in vivo
[13] = test system: MGC-803; assay: Induction of apoptosis in human MGC-803 cells assessed as necrotic cells at 0.5 uM measured after 48 hrs by Annexin V-EGFP and PI staining based flow cytometry analysis (reference value: 3.90%); format: functional
[14] = test system: PC-3; assay: Antiproliferative activity against human PC-3 cells assessed as inhibition of cell growth by MTT assay
[15] = molecular target: T2, Protein deacetylase HDAC6 (Mus musculus) (UniProt Q9Z2V5); assay: In vivo inhibition of HDAC6 in C57BL/6 mouse xenografted with MGC-803 cells assessed as effect on acetylated tubulin level at 25 to 50 mg/kg, ip by Western blot analysis; format: functional, organism-based; conditions: dose 25-50 mg/kg
T2 sequence (whole entry): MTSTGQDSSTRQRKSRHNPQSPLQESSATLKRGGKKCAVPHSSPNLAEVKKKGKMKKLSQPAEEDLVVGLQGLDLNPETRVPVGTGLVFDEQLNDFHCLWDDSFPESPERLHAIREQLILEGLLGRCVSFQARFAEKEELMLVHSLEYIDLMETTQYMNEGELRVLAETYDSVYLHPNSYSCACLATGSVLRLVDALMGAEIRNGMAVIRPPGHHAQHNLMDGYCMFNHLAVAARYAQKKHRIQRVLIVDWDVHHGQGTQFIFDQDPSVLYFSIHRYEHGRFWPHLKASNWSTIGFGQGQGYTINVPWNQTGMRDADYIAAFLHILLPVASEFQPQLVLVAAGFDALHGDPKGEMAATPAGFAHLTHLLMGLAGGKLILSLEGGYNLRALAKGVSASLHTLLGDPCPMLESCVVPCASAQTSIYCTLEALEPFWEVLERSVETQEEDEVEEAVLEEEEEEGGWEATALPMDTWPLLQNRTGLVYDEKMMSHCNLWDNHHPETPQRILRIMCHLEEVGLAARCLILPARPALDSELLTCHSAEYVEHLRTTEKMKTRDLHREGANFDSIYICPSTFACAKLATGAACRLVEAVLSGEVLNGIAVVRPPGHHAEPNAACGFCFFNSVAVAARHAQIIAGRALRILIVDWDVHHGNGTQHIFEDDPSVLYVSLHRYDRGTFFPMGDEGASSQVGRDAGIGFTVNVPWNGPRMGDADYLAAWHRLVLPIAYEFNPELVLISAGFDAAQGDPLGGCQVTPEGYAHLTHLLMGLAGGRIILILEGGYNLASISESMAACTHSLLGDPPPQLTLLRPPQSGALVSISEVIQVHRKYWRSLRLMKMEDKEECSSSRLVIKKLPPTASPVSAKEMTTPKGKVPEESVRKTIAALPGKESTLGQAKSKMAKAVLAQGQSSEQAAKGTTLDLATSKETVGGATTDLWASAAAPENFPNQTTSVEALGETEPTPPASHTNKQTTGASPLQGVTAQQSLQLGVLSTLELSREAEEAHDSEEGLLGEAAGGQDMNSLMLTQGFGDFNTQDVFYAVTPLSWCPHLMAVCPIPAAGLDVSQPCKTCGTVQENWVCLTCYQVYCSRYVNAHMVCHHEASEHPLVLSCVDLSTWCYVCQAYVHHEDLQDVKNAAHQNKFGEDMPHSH

[16] = test system: SGC-7901; assay: Antiproliferative activity against human SGC-7901 cells assessed as inhibition of cell growth by MTT assay
[17] = test system: H9c2; assay: Cardioprotective activity in H2O2 induced myocardial injury in rat H9c2 cells assessed as LDH release by absorbance based analysis; format: functional, cell-based; conditions: dose <= 8.0 µM
[18] = molecular target: T1, Histone deacetylase 1; assay: Induction of thermal stabilization of HDAC1 in human MGC-803 cells at 48 degree C st 20 uM incubated for 4 hrs by CETSA; format: cell-based
[19] = Toxicity in C57BL/6 mouse assessed as cell necrosis at 25 to 50 mg/kg, ip by H and E staining based analysis; format: organism-based; conditions: in vivo, dose 25-50 mg/kg
[20] = test system: MGC-803; assay: Induction of apoptosis in human MGC-803 cells assessed as early apoptotic cells at 2 uM measured after 48 hrs by Annexin V-EGFP and PI staining based flow cytometry analysis (reference value: 0.66%); format: functional

T1 sequence (Q13547 whole entry): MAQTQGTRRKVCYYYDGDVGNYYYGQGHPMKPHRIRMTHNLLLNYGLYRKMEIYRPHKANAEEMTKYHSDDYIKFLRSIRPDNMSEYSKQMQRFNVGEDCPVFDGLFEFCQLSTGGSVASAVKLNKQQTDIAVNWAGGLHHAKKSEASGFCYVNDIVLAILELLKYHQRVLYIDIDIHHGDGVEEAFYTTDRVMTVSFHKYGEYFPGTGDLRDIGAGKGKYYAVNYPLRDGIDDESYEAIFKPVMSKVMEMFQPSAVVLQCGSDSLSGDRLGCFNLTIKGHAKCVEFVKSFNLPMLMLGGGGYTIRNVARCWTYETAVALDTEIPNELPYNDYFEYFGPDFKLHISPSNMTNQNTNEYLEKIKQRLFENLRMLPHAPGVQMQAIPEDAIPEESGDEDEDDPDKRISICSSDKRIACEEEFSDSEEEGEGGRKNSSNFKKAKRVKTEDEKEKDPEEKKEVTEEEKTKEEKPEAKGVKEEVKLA

## O=C(NO)c1ccc(CNC(=O)c2cc(-c3ccc(F)cc3)cn3ccnc23)cc1
[1]
  Activity: Dose-Dependent Effect
[2]
  CL/F: 1590 mL/min/kg
[3]
  Activity: Active
[4]
  Activity: Dose-Dependent Effect
[5]
  pIC50: 8.51
[6]
  Activity: 15%
[7]
  Activity: Active
[8]
  half-life: 3.58 h
[9]
  Activity: Dose-Dependent Effect
[10]
  Activity: Dose-Dependent Effect
[11]
  pIC50: 5.55
[12]
  half-life: 2.19 h
[13]
  Activity: 5.97%
[14]
  pIC50: < 5.00
[15]
  inhibition: Active
[16]
  pIC50: 5.08
[17]
  Activity: Active
[18]
  Activity: inactive
[19]
  Activity: Non-Toxic
[20]
  Activity: 0.7%
